#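 Protocol summary: plate cells (96-well), add compound at 5 concentrations, incubate 48 h, interpolate endpoints linearly. The concentration for 50% growth inhibition is given as GI50. At the TGI there is no net growth.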
# Tests used:
# Experiment in all cases: NCI-60 cell line screen, 48 h
# [1] = tested on: CCRF-CEM leukemia
# [2] = tested on: OVCAR-4 ovarian
# [3] = tested on: SK-MEL-2 melanoma
# [4] = tested on: RXF 393 renal
# [5] = tested on: KM12 colon
# [6] = tested on: EKVX NSCLC
# [7] = tested on: SW-620 colon
# [8] = tested on: UACC-62 melanoma
# [9] = tested on: PC-3 prostate
# [10] = tested on: UACC-257 melanoma
# [11] = tested on: MCF7 breast
# [12] = tested on: HCT-116 colon
# [13] = tested on: M14 melanoma
# [14] = tested on: ACHN renal
# [15] = tested on: BT-549 breast
# [16] = tested on: HCC-2998 colon
# [17] = tested on: T-47D breast
# [18] = tested on: MOLT-4 leukemia
# [19] = tested on: HOP-92 NSCLC
# [20] = tested on: MDA-MB-435
# [21] = tested on: SF-268 CNS
# [22] = tested on: OVCAR-3 ovarian
# [23] = tested on: NCI-H226 lung
# [24] = tested on: A498 renal
# [25] = tested on: A549 NSCLC
# [26] = tested on: RPMI-8226 leukemia
# [27] = tested on: SN12C renal
# [28] = tested on: SK-OV-3 ovarian
# [29] = tested on: OVCAR-5 ovarian
# [30] = tested on: SF-539 CNS
# [31] = tested on: NCI/ADR-RES ovarian
# [32] = tested on: HL-60(TB) leukemia
# [33] = tested on: SK-MEL-5 melanoma
# [34] = tested on: UO-31 renal
# [35] = tested on: OVCAR-8 ovarian
# [36] = tested on: NCI-H23 lung
# [37] = tested on: MDA-MB-231 breast
# [38] = tested on: CAKI-1 renal
# [39] = tested on: NCI-H522 lung
# [40] = tested on: HT29 colon
# [41] = tested on: HS 578T breast
# [42] = tested on: NCI-H460 lung
# [43] = tested on: LOX IMVI melanoma
# [44] = tested on: DU-145 prostate
# [45] = tested on: TK-10 renal
# [46] = tested on: SK-MEL-28 melanoma
# [47] = tested on: IGROV1 ovarian
# [48] = tested on: HCT-15 colon
# [49] = tested on: COLO 205 colon
# [50] = tested on: SR leukemia
# [51] = tested on: SNB-75 CNS
# [52] = tested on: 786-0 renal
# [53] = tested on: HOP-62 NSCLC
# [54] = tested on: SNB-19 CNS
# [55] = tested on: MALME-3M melanoma
# [56] = tested on: U251 CNS
# [57] = tested on: SF-295 CNS
# [58] = tested on: K-562 leukemia
smiles,measurement,setting,value
COC1=C(OC)C(=O)C(CCCCCCCCCCO)=C(C)C1=O,GI50,[1],3.15 µM
same,TGI,[1],20.4 µM
same,GI50,[2],1.29 µM
same,TGI,[2],2.6 µM
same,GI50,[3],3.2 µM
same,TGI,[3],8.1 µM
same,GI50,[4],10.1 µM
same,TGI,[4],23.9 µM
same,GI50,[5],15.1 µM
same,TGI,[5],58.1 µM
same,GI50,[6],5.89 µM
same,TGI,[6],21.8 µM
same,GI50,[7],14.7 µM
same,TGI,[7],30.9 µM
same,GI50,[8],7.57 µM
same,TGI,[8],21.4 µM
same,GI50,[9],3.76 µM
same,TGI,[9],15.6 µM
same,GI50,[10],1.84 µM
same,TGI,[10],4.48 µM
same,GI50,[11],1.96 µM
same,TGI,[11],4.45 µM
same,GI50,[12],4.46 µM
same,TGI,[12],16.1 µM
same,GI50,[13],15 µM
same,TGI,[13],31 µM
same,GI50,[14],3.35 µM
same,TGI,[14],11.2 µM
same,GI50,[15],12.7 µM
same,TGI,[15],25.9 µM
same,GI50,[16],16.3 µM
same,TGI,[16],33.5 µM
same,GI50,[17],2.44 µM
same,TGI,[17],7.43 µM
same,GI50,[18],4.54 µM
same,TGI,[18],21.7 µM
same,GI50,[19],2.53 µM
same,TGI,[19],9.84 µM
same,GI50,[20],1.89 µM
same,TGI,[20],3.9 µM
same,GI50,[21],9.61 µM
same,TGI,[21],30.7 µM
same,GI50,[22],10.2 µM
same,TGI,[22],24.7 µM
same,GI50,[23],13.8 µM
same,TGI,[23],29.9 µM
same,GI50,[24],13.1 µM
same,TGI,[24],26.6 µM
same,GI50,[25],15.3 µM
same,TGI,[25],34.8 µM
same,GI50,[26],4 µM
same,TGI,[26],29.5 µM
same,GI50,[27],7.39 µM
same,TGI,[27],24.4 µM
same,GI50,[28],15.7 µM
same,TGI,[28],29.2 µM
same,GI50,[29],10.7 µM
same,TGI,[29],25.5 µM
same,GI50,[30],7.49 µM
same,TGI,[30],20.3 µM
same,GI50,[31],3.34 µM
same,TGI,[31],13 µM
same,GI50,[32],3.71 µM
same,TGI,[32],11.5 µM
same,GI50,[33],5.92 µM
same,TGI,[33],19.1 µM
same,GI50,[34],12.7 µM
same,TGI,[34],26.6 µM
same,GI50,[35],3.76 µM
same,TGI,[35],16.2 µM
same,GI50,[36],3.17 µM
same,TGI,[36],16.6 µM
same,GI50,[37],5.24 µM
same,TGI,[37],22 µM
same,GI50,[38],4.01 µM
same,TGI,[38],29 µM
same,GI50,[39],11.2 µM
same,TGI,[39],35.3 µM
same,GI50,[40],14.5 µM
same,TGI,[40],31.6 µM
same,GI50,[41],18.3 µM
same,TGI,[41],> 100 µM
same,GI50,[42],14.8 µM
same,TGI,[42],34.9 µM
same,GI50,[43],0.964 µM
same,TGI,[43],9.72 µM
same,GI50,[44],7.77 µM
same,TGI,[44],22.4 µM
same,GI50,[45],16.6 µM
same,TGI,[45],30.6 µM
same,GI50,[46],13.5 µM
same,TGI,[46],26.5 µM
same,GI50,[47],9.74 µM
same,TGI,[47],29.7 µM
same,GI50,[48],8.81 µM
same,TGI,[48],24.5 µM
same,GI50,[49],19.6 µM
same,TGI,[49],34 µM
same,GI50,[50],3.18 µM
same,TGI,[50],19 µM
same,GI50,[51],12.1 µM
same,TGI,[51],28 µM
same,GI50,[52],9.61 µM
same,TGI,[52],21.7 µM
same,GI50,[53],16 µM
same,TGI,[53],29.5 µM
same,GI50,[54],14.8 µM
same,TGI,[54],31.3 µM
same,GI50,[55],7.47 µM
same,TGI,[55],21.8 µM
same,GI50,[56],3.03 µM
same,TGI,[56],12.5 µM
CC(=O)N(O)c1ccc(/C=C/c2ccccc2)cc1,GI50,[1],0.137 µM
same,TGI,[1],> 100 µM
same,GI50,[57],0.362 µM
same,TGI,[57],2.78 µM
same,GI50,[2],2.91 µM
same,TGI,[2],> 82.1 µM
same,GI50,[3],5.71 µM
same,TGI,[3],37.9 µM
same,GI50,[4],0.539 µM
same,TGI,[4],1.9 µM
same,GI50,[5],2.99 µM
same,TGI,[5],28.3 µM
same,GI50,[7],1.15 µM
same,TGI,[7],> 100 µM
same,GI50,[8],1.46 µM
same,TGI,[8],4.69 µM
same,GI50,[9],2.32 µM
same,TGI,[9],> 100 µM
same,GI50,[10],1.23 µM
same,TGI,[10],5.17 µM
same,GI50,[11],0.548 µM
same,TGI,[11],> 100 µM
same,GI50,[12],1.12 µM
same,TGI,[12],13.4 µM
same,GI50,[13],3.35 µM
same,TGI,[13],> 100 µM
same,GI50,[14],0.26 µM
same,TGI,[14],2.08 µM
same,GI50,[15],2.59 µM
same,TGI,[15],20.5 µM
same,GI50,[16],1.65 µM
same,TGI,[16],3.76 µM
same,GI50,[17],0.24 µM
same,TGI,[17],> 41.8 µM
same,GI50,[18],2.27 µM
same,TGI,[18],> 100 µM
same,GI50,[19],1.14 µM
same,TGI,[19],3.65 µM
same,GI50,[20],3.39 µM
same,TGI,[20],> 100 µM
same,GI50,[21],0.817 µM
same,TGI,[21],9.69 µM
same,GI50,[58],7.39 µM
same,TGI,[58],> 100 µM
same,GI50,[22],2.55 µM
same,TGI,[22],29.2 µM
same,GI50,[23],0.0656 µM
same,TGI,[23],0.386 µM
same,GI50,[24],0.221 µM
same,TGI,[24],0.715 µM
same,GI50,[25],1.26 µM
same,TGI,[25],15.5 µM
same,GI50,[26],3.21 µM
same,TGI,[26],> 100 µM
same,GI50,[27],0.763 µM
same,TGI,[27],37.5 µM
same,GI50,[28],2.04 µM
same,TGI,[28],8.77 µM
same,GI50,[29],2.35 µM
same,TGI,[29],9.46 µM
same,GI50,[30],2.43 µM
same,TGI,[30],35.1 µM
same,GI50,[31],2.21 µM
same,TGI,[31],44.1 µM
same,GI50,[32],1.07 µM
same,TGI,[32],> 100 µM
same,GI50,[33],6.05 µM
same,TGI,[33],> 100 µM
same,GI50,[34],0.759 µM
same,TGI,[34],2.9 µM
same,GI50,[35],1.59 µM
same,TGI,[35],> 52.5 µM
same,GI50,[36],3.6 µM
same,TGI,[36],36.3 µM
same,GI50,[37],3.41 µM
same,TGI,[37],21.8 µM
same,GI50,[38],0.543 µM
same,TGI,[38],3.22 µM
same,GI50,[39],3.58 µM
same,TGI,[39],> 41.1 µM
same,GI50,[40],3.39 µM
same,TGI,[40],53.2 µM
same,GI50,[41],3.62 µM
same,TGI,[41],68.8 µM
same,GI50,[42],0.247 µM
same,TGI,[42],8.39 µM
same,GI50,[43],1.48 µM
same,TGI,[43],14.6 µM
same,GI50,[44],0.278 µM
same,TGI,[44],2.52 µM
same,GI50,[45],1.9 µM
same,TGI,[45],5.86 µM
same,GI50,[46],9.39 µM
same,TGI,[46],> 100 µM
same,GI50,[47],1.14 µM
same,TGI,[47],7.41 µM
same,GI50,[48],2.9 µM
same,TGI,[48],> 100 µM
same,GI50,[49],3.34 µM
same,TGI,[49],44 µM
same,GI50,[50],0.244 µM
same,TGI,[50],> 100 µM
same,GI50,[51],0.883 µM
same,TGI,[51],4.59 µM
same,GI50,[52],0.768 µM
same,TGI,[52],3.46 µM
same,GI50,[53],1.98 µM
same,TGI,[53],> 35.7 µM
same,GI50,[54],1.88 µM
same,TGI,[54],> 100 µM
same,GI50,[55],> 66.6 µM
same,TGI,[55],> 100 µM
same,GI50,[56],1.23 µM
same,TGI,[56],3.59 µM
